Molecular target: T1, recombinant EphB4 (Homo sapiens, UniProt P54760)
T1 construct: amino acids 563-987; Swiss-Prot Acc; No. P54760; purchased ProQinase GmbH 0178-0000-3
T1 sequence (P54760 563-987): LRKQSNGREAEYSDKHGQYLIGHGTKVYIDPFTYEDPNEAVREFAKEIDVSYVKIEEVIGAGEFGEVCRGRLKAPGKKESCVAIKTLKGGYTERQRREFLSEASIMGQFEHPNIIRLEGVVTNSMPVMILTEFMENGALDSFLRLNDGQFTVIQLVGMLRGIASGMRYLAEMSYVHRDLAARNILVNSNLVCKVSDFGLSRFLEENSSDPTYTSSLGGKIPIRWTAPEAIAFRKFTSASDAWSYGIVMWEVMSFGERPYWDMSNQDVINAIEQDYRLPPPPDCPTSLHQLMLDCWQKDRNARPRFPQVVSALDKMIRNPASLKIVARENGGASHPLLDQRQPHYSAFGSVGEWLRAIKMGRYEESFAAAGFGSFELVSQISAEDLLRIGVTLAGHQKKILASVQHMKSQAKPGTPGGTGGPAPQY
Assay: In vitro EphB4 enzyme assay (Alphascreen, phosphorylation of biotin-poly-GAT)
Format: biochemical
Conditions: method of compound preparation not stated; read-out: IC50 in assay A
Description: A) In vitro EphB4 Enzyme Assay
This assay detects inhibitors of EphB4-mediated phosphorylation of a polypeptide substrate using Alphascreen™ luminescence detection technology. Briefly, recombinant EphB4 was incubated with a biotinylated-polypeptide substrate (biotin-poly-GAT) in presence of magnesium-ATP. The reaction was stopped by addition of EDTA, together with streptavidin-coated donor beads which bind the biotin-substrate containing any phosphorylated tyrosine residues. Anti-phosphotyrosine antibodies present on acceptor beads bind to phosphorylated substrate, thus bringing the donor & acceptor beads into close proximity. Subsequent excitation of the donor beads at 680 nm generated singlet oxygen species that interact with a chemiluminescer on the acceptor beads, leading to light emission at 520-620 nm. The signal intensity is directly proportional to the level of substrate phosphorylation and thus inhibition is measured by a decrease in signal.
Aqueous Compound Preparation:
Acoustic Compound Preparation:
To ensure that each well contained a total of 120 nl DMSO the wells were all backfilled as required. […] The test range of compounds was 100× the required final concentration.
Assay plates were then incubated at room temperature for 1 hour.
For assays using compounds prepared via acoustic dispensing, the assay mix was adjusted such that the final assay volume of 12 ul contained the same concentration of reagent as 10 ul of assay mix used when aqueous compounds were tested.
The plates were sealed under natural lighting conditions, wrapped in aluminium foil and incubated in the dark for a further 20 hours.
The resulting assay signal was determined on the Perkin Elmer EnVision plate reader. The minimum value was subtracted from all values, and the signal plotted against compound concentration to generate IC50 data. The method used to generate the compound dilutions was recorded with the IC50 value in the database.

IC50: 243 nM
SMILES: c1cc(Nc2ccnc(Nc3cc(N4CCOCC4)nc(N4CCOCC4)c3)n2)c2cn[nH]c2c1 [Example 3, N2-(2,6-dimorpholinopyridin-4-yl)-N4-(1H-indazol-4-yl)pyrimidine-2,4-diamine]

Reference: US7718653B2, “Pyrimidine derivatives for inhibiting Eph receptors” (AstraZeneca AB, priority 2007, dated 2010)
